O=C(O)c1cccc(-c2noc(-c3ccccc3)c2C(=O)O)c1 [Compound 483] gave a melting point of 255 to 257 °C.

Compound O=C(O)c1ccc(-c2cc(-c3ccc(F)cc3)no2)cc1 [Compound 537] has a melting point of 322 to 323 °C.

Cc1ccc(-c2cc(-c3ccc(C(=O)O)cc3)no2)cc1 [Compound 534] gave a melting point of 297.5 to 299 °C.

Work on O=C(O)c1ccc(-c2cc(-c3ccc(Cl)cc3)on2)cc1 [Compound 533] yielded a melting point of 273 to 275 °C.

Compound CN(C)c1ccccc1-c1nnc(-c2ccc(C(=O)O)cc2)o1 [Compound 601] has a melting point of 177 to 178 °C.

Work on O=C(O)c1cccc(-c2cc(-c3ccccc3F)no2)c1 [Compound 501] yielded a melting point of 231 to 232 °C.

Work on COc1ccc(-c2cc(-c3ccc(C(=O)O)cc3)on2)cc1 [Compound 539] yielded a melting point of 297.5 to 299.5 °C.

With O=C(O)c1ccc(-c2nnc(-c3ccccc3)o2)cc1 [Compound 596] the melting point was > 275 °C.

CC(C)c1cccc(-c2cnc(-c3ccc(C(=O)O)cc3)o2)c1 [Compound 644] gave a melting point of 236 to 237 °C.

Compound O=C(O)c1cccc(-c2cc(-c3cccc(F)c3)no2)c1 [Compound 502] has a melting point of 264 to 265 °C.

Work on Cc1ccc(-c2cc(-c3cccc(C(=O)O)c3)no2)cc1 [Compound 573] yielded a melting point of 257 to 259 °C.

For CC(C)c1ccc(-c2ncc(-c3cccc(C(=O)O)c3)s2)cc1 [Compound No. 321, 3-[2-(4-isopropylphenyl)thiazol-5-yl]benzoic acid], the melting point was 237 to 239 °C.

Work on CC(C)c1ccc(-c2nnc(-c3cccc(C(=O)O)c3)o2)cc1 [Compound 6, 3-[5-(4-isopropylphenyl)-[1,3,4]oxadiazol-2-yl]benzoic acid] yielded a melting point of 202 to 204 °C.

In the case of O=C(O)c1ccc(-c2nnc(-c3ccc(C(=O)N4CCCCC4)cc3)o2)cc1 [Compound 286], the melting point is reported as > 310 °C.

With CC(C)(C)C1CCC(c2nnc(-c3ccc(C(=O)O)cc3)o2)CC1 (centres unmarked) [Compound 621] the melting point was 258 to 261 °C.

CC(C)c1ccc(-c2cnc(-c3cccc(C(=O)O)c3)s2)cc1 [Compound No. 310, 3-[5-(4-Isopropyl-phenyl)thiazol-2-yl]benzoic acid] showed a melting point of 218 to 220 °C.

For O=C(O)c1ccc(-c2nnc(-c3ccnc(Br)c3)o2)cc1 [Compound 292], the melting point was 275 to 278 °C.

O=C(O)c1cccc(-c2cc(-c3ccc(Cl)cc3)no2)c1 [Compound No. 503, 3-[3-(4-chlorophenyl)isoxazol-5-yl]benzoic acid] gave a melting point of 265 to 266 °C.

O=C(O)c1ccc(-c2ncc(-c3ccccc3F)o2)cc1 [Compound 550] gave a melting point of 272 to 273 °C.

CC(C)c1ccc(-c2nc(-c3ccc(C(=O)O)cc3)no2)cc1 [Compound No. 275, 4-[5-(4-isopropylphenyl)-[1,2,4]oxadiazol-3-yl]benzoic acid] showed a melting point of 210 to 213 °C.

Work on COc1ccc(-c2cc(-c3cccc(C(=O)O)c3)on2)cc1 [Compound 500] yielded a melting point of 246 to 247 °C.

With O=C(O)c1cccc(-c2nc(-c3ccccc3O)n[nH]2)c1 [Compound 455] the melting point was > 300 °C.

Work on CC(C)c1ccc(-c2ccc(-c3cccc(C(=O)O)c3)o2)cc1 [Compound No. 322, 3-[5-(4-isopropylphenyl)furan-2-yl]benzoic acid] yielded a melting point of 172 to 176 °C.

With CN(C)c1ccc(-c2nnc(-c3cccc(C(=O)[O-])c3)o2)cc1.[Na+] [Compound 624] the melting point was 227 to 235 °C (dec.).

In the case of O=C(O)c1cccc(-c2nc(-c3ccccc3)n[nH]2)c1 [Compound 427], the melting point is reported as > 300 °C.

With O=C(O)c1cccc(-c2nnc(-c3ccc(Br)nc3)o2)c1 [Compound 293] the melting point was 274 to 275 °C.

Work on O=C(O)c1cccc(-c2nnc(-c3ccc(N4CCOCC4)cc3)o2)c1 [Compound No. 82, 3-[5-(4-morpholin-4-yl-phenyl)-[1,3,4]oxadiazol-2-yl]benzoic acid] yielded a melting point of 235 to 237 °C.

CC(C)(C)c1ccc(-c2cnc(-c3cccc(C(=O)O)c3)o2)cc1 [Compound 592] showed a melting point of 224 to 225 °C.

O=C(O)c1ccc(-c2ncc(-c3ccc(Oc4ccccc4)cc3)o2)cc1 [Compound 647] showed a melting point of 220 to 222 °C.

In the case of O=C(O)c1cccc(-c2nnc(-c3ccc(N4CCN(c5ccccc5)CC4)cc3)o2)c1 [Compound 84], the melting point is reported as 279 to 282 °C.

Compound CN(C)c1cccc(-c2nnc(-c3ccc(C(=O)O)cc3)o2)c1 [Compound 3] has a melting point of 247 to 248 °C.

Work on COc1cccc(-c2cc(-c3cccc(C(=O)O)c3)no2)c1 [Compound 481] yielded a melting point of 201 to 203 °C.

Work on COc1ccc(-c2cc(-c3cccc(C(=O)O)c3)no2)cc1 [Compound 480] yielded a melting point of 249.5 to 251 °C.

For CC(C)c1ccc(-c2nsc(-c3cccc(C(=O)O)c3)n2)cc1 [Compound No. 326, 3-[3-(4-isopropylphenyl)-[1,2, 4]thiadiazol-5-yl]benzoic acid], the melting point was 166 to 168 °C.

In the case of COc1cccc(-c2n[nH]c(-c3cccc(C(=O)O)c3)n2)c1 [Compound 458], the melting point is reported as 247 to 250 °C.

CC(C)c1ccc(-c2nnc(-c3ccc(C(=O)O)cc3)o2)cc1 [Compound 5] gave a melting point of 262 to 265 °C.

In the case of O=C(O)c1cccc(-c2ncc(-c3ccccc3F)o2)c1 [Compound 579], the melting point is reported as 228 to 229 °C.

CC(C)c1ccc(-c2coc(-c3cccc(C(=O)O)c3)n2)cc1 [Compound 276] gave a melting point of 235 to 237 °C.

Cc1cccc(-c2ccc(-c3nnc(-c4cccc(C(=O)O)c4)o3)cn2)c1 [Compound 282] showed a melting point of 274 to 275 °C.

In the case of O=C(O)c1ccc(-c2ncc(-c3cccc(F)c3F)o2)cc1 [Compound 549], the melting point is reported as 295 to 296 °C.

For O=C(O)c1cccc(-c2nnc(-c3ccc4[nH]ccc4c3)o2)c1 [Compound 316], the melting point was > 270 °C.

For COc1ccccc1-c1cnc(-c2ccc(C(=O)O)cc2)o1 [Compound 645], the melting point was 305 to 306 °C.

O=C(O)Cc1ccc(-c2ncc(-c3ccc(F)cc3F)o2)cc1 [Compound 650] showed a melting point of 191 to 193 °C.

With O=C(O)c1ccc(-c2ncc(-c3ccc(F)c(F)c3)o2)cc1 [Compound 640] the melting point was 291 to 292 °C.

In the case of O=C(O)c1cccc(-c2noc(-c3ccccc3)c2CO)c1 [Compound 484], the melting point is reported as 215 to 216 °C.

For CC(C)c1ccc(NC(=O)c2nnc(-c3cccc(C(=O)O)c3)o2)cc1 [Compound 283], the melting point was 220 to 226 °C.

With O=C(O)c1cccc(-c2ncc(-c3cccc(Cl)c3)o2)c1 [Compound 583] the melting point was 220 to 222 °C.

In the case of CC(=O)Nc1cccc(-c2nnc(-c3ccc(C(=O)O)cc3)o2)c1 [Compound 14], the melting point is reported as > 275 °C.

In the case of O=C(O)c1ccc(-c2ncc(-c3cccc(Cl)c3)o2)cc1 [Compound 556], the melting point is reported as 272 to 274 °C.

CC(C)c1ccc(-c2noc(-c3ccc(C(=O)O)cc3)n2)cc1 [Compound No. 140, 4-[3-(4-isopropylphenyl)-1,2,4-oxadiazol-5-yl]benzoic acid] gave a melting point of 253 to 255 °C.

In the case of O=C(O)c1cccc(-c2nc(-c3cccnc3)n[nH]2)c1 [Compound 428], the melting point is reported as > 310 °C.

Work on COc1ccc(-c2cnc(-c3ccc(C(=O)O)cc3)o2)cc1OC [Compound 547] yielded a melting point of 241 to 243 °C.

Compound CC(C)c1ccc(-c2nc(-c3cccc(C(=O)O)c3)cs2)cc1 [Compound No. 312, 3-[2-(4-isopropylphenyl)thiazol-4-yl]-benzoic acid] has a melting point of 193 to 195 °C.

Source: US9611230B2, “1,3,4-oxadiazole benzoic acid compounds and their use for nonsense suppression and the treatment of disease” (PTC Therapeutics, Inc., priority 2004, dated 2017)
